The values below come from patent US8957093B2, “N-biphenylmethylindole modulators of PPARG” (The Scripps Research Institute, priority 2011, dated 2015).

The target of one assay is GST-PPARG-LBD (Homo sapiens (Human), UniProt P37231). Description: Lanthascreen PPARG competitive binding assay (Invitrogen, TR-FRET). To be noted: NA = not active, inc = incomplete curve; for IC50: read-out: IC50 (nM) Lantha. As to the method:
Lanthascreen PPARG Competitive Binding Assay (Invitrogen)
The assay was performed according to manufacturer protocol. A mixture of […], 5 nM Tb-GST-antibody, 5 nM Fluormone Pan-PPAR Green, and serial dilutions of the experimental compound, beginning at 10 μM downwards, was added to wells of black 384-well low-volume plates (Greiner) to a total volume of 18 μL. All dilutions were made in TR-FRET assay buffer C. DMSO at 2% final concentration was used as a no-ligand control. Experiment was performed in triplicate, and incubated for 2 hours in the dark prior to assay read in Perkin Elmer ViewLux ultra HTS microplate reader. FRET signal was measured by excitation at 340 nm and emission at 520 nm for fluorescein and 490 nm for terbium. Fold change over DMSO was calculated using GraphPad Prism Software (La Jolla, Calif.) by calculating 520 nm/490 nm ratio. Graphs were plotted as fold change of FRET signal for compound treatment over DMSO-only control.
(In general: Time-resolved FRET reads energy transfer from a long-lived donor to a nearby acceptor.)

For assay [1], the target named is Gal-4-PPAR (human PPAR LBD fused to GAL4 DNA-binding domain) (Homo sapiens (Human), UniProt P37231). Description: GAL4-PPARG LBD / UAS-luciferase transactivation assay in HEK 293T cells. It is filed as cell-based. To be noted: for EC50: GAL4 transactivation, HEK 293T cells, NA = not active, read-out: EC50 (nM) GAL4; for activation at 10 µM: HEK-293T, 18 h, read-out: % transactivation at 10 μM (GAL4).
Gal-4-PPAR (human PPAR LBD fused to GAL4 DNA-binding domain), sequence (P37231 238-503): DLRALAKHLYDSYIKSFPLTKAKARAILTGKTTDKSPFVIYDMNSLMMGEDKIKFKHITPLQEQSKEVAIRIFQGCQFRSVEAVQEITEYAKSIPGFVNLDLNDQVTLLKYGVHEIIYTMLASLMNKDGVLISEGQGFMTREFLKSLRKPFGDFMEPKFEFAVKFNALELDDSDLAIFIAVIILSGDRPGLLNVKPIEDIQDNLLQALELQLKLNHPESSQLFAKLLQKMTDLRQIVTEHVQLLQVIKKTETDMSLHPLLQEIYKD

Setting [2] is: Lanthascreen competitive binding.
Where [3] appears, read: Lanthascreen PPARG competitive binding.

Like-named read-outs stand apart in the source and are kept apart here.

GST-PPARG-LBD, sequence (P37231 238-503): as above

As a reminder, the IC50 is the point on the concentration scale where inhibition reaches its midpoint. `C[C@H](NC(=O)c1ccc2c(ccn2Cc2ccc(-c3cccc(N)c3)cc2)c1)c1ccc([N+](=O)[O-])cc1` [Example 52, (S)-1-((3′-Amino-[1,1′-biphenyl]-4-yl)methyl)-N-(1-(4-nitrophenyl)ethyl)-1H-indole-5-carboxamide]: the IC50 at GST-PPARG-LBD (setting [2]) was over 1000 nM.

As usually defined, the EC50 is the concentration giving half of the maximal effect. For `Cc1c(C)n(Cc2ccc(-c3ccccc3C(=O)O)cc2)c2ccc(C(=O)N[C@@H](C)c3cccc(OC(C)C)c3)cc12` [Example 199, (S)-4′-((5-((1-(3-isopropoxyphenyl)ethyl)carbamoyl)-2,3-dimethyl-1H-indol-1-yl)methyl)-[1,1′-biphenyl]-2-carboxylic acid], in assay [1], the EC50 is 2750 nM and the activation at 10 µM was 10%.

Regarding `Cc1c(C)n(Cc2ccc(-c3ccccc3C(=O)NC3CC3)cc2)c2ccc(C(=O)N[C@@H](C)c3cccc(C(C)C)c3)cc12` [Example 305, (S)-1-((2′-(Cyclopropylcarbamoyl)-[1,1′-biphenyl]-4-yl)methyl)-N-(1-(3-isopropylphenyl)ethyl)-2,3-dimethyl-1H-indole-5-carboxamide], the IC50 on GST-PPARG-LBD (setting [3]) came out at 94 nM.

Turning to `C[C@H](NC(=O)c1ccc2c(ccn2Cc2ccc(-c3cccc(Cl)c3)cc2)c1)c1ccc([N+](=O)[O-])cc1` [Example 58, (S)-1-((3′-Chloro-[1,1′-biphenyl]-4-yl)methyl)-N-(1-(4-nitrophenyl)ethyl)-1H-indole-5-carboxamide], the IC50 at GST-PPARG-LBD (setting [2]) is over 1000 nM.

`Cc1c(C)n(Cc2ccc(-c3ccccc3C#N)cc2)c2ccc(C(=O)N[C@@H](C)c3ccccc3)cc12` [Example 291, (S)-1-((2′-cyano-[1,1′-biphenyl]-4-yl)methyl)-2,3-dimethyl-N-(1-phenylethyl)-1H-indole-5-carboxamide]: the “IC50 (nM) Lantha” value at GST-PPARG-LBD (setting [3]) was “inc”.

As to `Cc1c(C)n(Cc2ccc(-c3ccccc3C(=O)O)cc2)c2ccc(C(=O)N[C@@H](C)c3ccc(OC(C)C)cc3)cc12` [Example 201, (S)-4′-((5-((1-(4-isopropoxyphenyl)ethyl)carbamoyl)-2,3-dimethyl-1H-indol-1-yl)methyl)-[1,1′-biphenyl]-2-carboxylic acid], in assay [1], the EC50 was determined as 941 nM and the activation at 10 µM is 10%.

Take `CCc1ccc([C@H](C)NC(=O)c2ccc3c(c2)c(C)c(C)n3Cc2ccc(-c3ccccc3C#N)cc2)cc1` [Example 289, (S)-1-((2′-cyano-[1,1′-biphenyl]-4-yl)methyl)-N-(1-(4-ethylphenyl)ethyl)-2,3-dimethyl-1H-indole-5-carboxamide]: the “IC50 (nM) Lantha” value at GST-PPARG-LBD (setting [3]) is “inc”.

`CC[C@@H](NC(=O)c1ccc2c(c1)c(C)c(C)n2Cc1ccccc1-c1cccc(C(=O)O)c1)c1ccccc1` [Example 193, (R)-2′-((2,3-dimethyl-5-((1-phenylpropyl)carbamoyl)-1H-indol-1-yl)methyl)-[1,1′-biphenyl]-3-carboxylic acid]: in assay [1], the EC50 stood at 191 nM and the activation at 10 µM amounted to 40%.

As to `C[C@H](NC(=O)c1ccc2c(ccn2Cc2ccc(-c3ccccc3)cc2)c1)c1ccc([N+](=O)[O-])cc1` [Example 38, (S)-1-([1,1′-Biphenyl]-4-ylmethyl)-N-(1-(4-nitrophenyl)ethyl)-1H-indole-5-carboxamide], at GST-PPARG-LBD (setting [2]), the IC50 was over 1000 nM.

With `Cc1c(C)n(Cc2ccc(-c3ccccc3C#N)cc2)c2ccc(C(=O)N[C@@H](C)c3ccc(Cl)cc3)cc12` [Example 283, (S)—N-(1-(4-chlorophenyl)ethyl)-1-((2′-cyano-[1,1′-biphenyl]-4-yl)methyl)-2,3-dimethyl-1H-indole-5-carboxamide], the “IC50 (nM) Lantha” value at GST-PPARG-LBD (setting [3]) is “inc”.

On to `Cc1c(C)n(Cc2ccc(-c3ccccc3C(=O)N3CC[C@H](O)C3)cc2)c2ccc(C(=O)N[C@@H](C)c3cccc(C(C)C)c3)cc12` [Example 306, 1-((2′-((S)-3-Hydroxypyrrolidine-1-carbonyl)-[1,1′-biphenyl]-4-yl)methyl)-N-((S)-1-(3-isopropylphenyl)ethyl)-2,3-dimethyl-1H-indole-5-carboxamide], for which, on GST-PPARG-LBD (setting [3]), the IC50 is over 500 nM.

As to `Cc1c(C)n(Cc2ccc(-c3ccccc3C#N)cc2)c2ccc(C(=O)N[C@@H](C)c3cccc(Cl)c3)cc12` [Example 281, (S)—N-(1-(3-chlorophenyl)ethyl)-1-((2′-cyano-[1,1′-biphenyl]-4-yl)methyl)-2,3-dimethyl-1H-indole-5-carboxamide], the “IC50 (nM) Lantha” value on GST-PPARG-LBD (setting [3]) is “inc”.

As for `C[C@H](NC(=O)c1ccc2c(ccn2Cc2ccc(-c3ccc(S(C)(=O)=O)cc3)cc2)c1)c1ccc([N+](=O)[O-])cc1` [Example 50, (S)-1-((4′-(Methylsulfonyl)-[1,1′-biphenyl]-4-yl)methyl)-N-(1-(4-nitrophenyl)ethyl)-1H-indole-5-carboxamide], the IC50 on GST-PPARG-LBD (setting [2]) was over 1000 nM.

In the case of `C[C@H](NC(=O)c1ccc2c(ccn2Cc2ccc(-c3ccccc3C(=O)O)cc2)c1)c1ccc([N+](=O)[O-])cc1` [Example 61, (S)-4′-((5-((1-(4-Nitrophenyl)ethyl)carbamoyl)-1H-indol-1-yl)methyl)-[1,1′-biphenyl]-2-carboxylic acid], the IC50 on GST-PPARG-LBD (setting [2]) turned out to be 646 nM.

As to `Cc1c(C)n(Cc2ccc(-c3ccccc3C(=O)O)cc2)c2ccc(C(=O)NCc3ccc(Cl)cc3Cl)cc12` [Example 168, 4′-((5-((2,4-dichlorobenzyl)carbamoyl)-2,3-dimethyl-1H-indol-1-yl)methyl)-[1,1′-biphenyl]-2-carboxylic acid], in assay [1], the EC50 was 931 nM and the activation at 10 µM was determined as 18%.

`CC[C@@H](NC(=O)c1ccc2c(c1)c(C)c(C)n2Cc1ccccc1-c1ccc(C(=O)O)cc1)c1ccccc1` [Example 195, (R)-2′-((2,3-dimethyl-5-((1-phenylpropyl)carbamoyl)-1H-indol-1-yl)methyl)-[1,1′-biphenyl]-4-carboxylic acid]: in assay [1], the EC50 was found to be 169 nM and the activation at 10 µM was determined as 35%.

With `CC[C@H](NC(=O)c1ccc2c(c1)c(C)c(C)n2Cc1ccccc1-c1cccc(C(=O)O)c1)c1ccccc1` [Example 194, (S)-2′-((2,3-dimethyl-5-((1-phenylpropyl)carbamoyl)-1H-indol-1-yl)methyl)-[1,1′-biphenyl]-3-carboxylic acid], in assay [1], the EC50 turned out to be 793 nM and the activation at 10 µM worked out at 18%.

Consider `Cc1c(C)n(Cc2ccc(-c3ccccc3C(=O)O)cc2)c2ccc(C(=O)N[C@@H](C)c3ccc(Cl)c(C(F)(F)F)c3)cc12` [Example 222, (S)-4′-((5-((1-(4-chloro-3-(trifluoromethyl)phenyl)ethyl)carbamoyl)-2,3-dimethyl-1H-indol-1-yl)methyl)-[1,1′-biphenyl]-2-carboxylic acid], for which, in assay [1], the EC50 came to 193 nM and the activation at 10 µM worked out at 5%.

Regarding `Cc1c(C)n(Cc2ccc(-c3ccccc3C(=O)O)cc2)c2ccc(C(=O)N[C@H]3CCN(C(=O)OCc4ccccc4)C3)cc12` [Example 204, (S)-4′-((5-((1-((benzyloxy)carbonyl)pyrrolidin-3-yl)carbamoyl)-2,3-dimethyl-1H-indol-1-yl)methyl)-[1,1′-biphenyl]-2-carboxylic acid], the activation at 10 µM in assay [1] was determined as 0%.

For the compound `Cc1c(C)n(Cc2ccc(-c3ccccc3C(=O)O)cc2)c2ccc(C(=O)NCc3ccc(C(F)(F)F)cc3F)cc12` [Example 167, 4′-((5-((2-fluoro-4-(trifluoromethyl)benzyl)carbamoyl)-2,3-dimethyl-1H-indol-1-yl)methyl)-[1,1′-biphenyl]-2-carboxylic acid], in assay [1], the EC50 came to 596 nM and the activation at 10 µM was 10%.
